# Source: US20250034202A1 (The General Hospital Corporation, priority 2021, published 2025)
# Where “and” joins values, the source holds several entries; their conditions need not be identical. Identical values can stand only once. Like-named read-outs stand apart in the source and are kept apart here.
# Assays:
# BRD4 [1] = target: T1, BRD4 (Homo sapiens, UniProt O60885); assay: Rescue of CS-JQ1-induced BRD4 degradation by co-treatment; assay type: cell-based; conditions: CS-JQ1 250 nM; BTZ, MLN7243, MLN4924 1 μM, JQ1 10 μM; MCF7 and MDA-MB-231 cells
# DIPG VI = assay: Cell viability, pediatric glioma DIPG VI; assay type: cell-based
# CT2A (mice) = assay: Cell viability, adult glioma CT2A (mice); assay type: cell-based
# MGG6 = assay: Cell viability, adult glioma MGG6; assay type: cell-based
# MES236 = assay: Cell viability, adult glioma MES236; assay type: cell-based
# MGG29 = assay: Cell viability, adult glioma MGG29; assay type: cell-based
# MCF-7 = assay: Cell viability, breast cancer cells MCF-7; assay type: cell-based
# MDA-BR = assay: Cell viability, breast cancer cells MDA-BR; assay type: cell-based
# DIPG IV = assay: Cell viability, pediatric glioma DIPG IV; assay type: cell-based
# MES83 = assay: Cell viability, adult glioma MES83; assay type: cell-based
# SJGBM2 = assay: Cell viability, pediatric glioma SJGBM2; assay type: cell-based
# MGG23 = assay: Cell viability, adult glioma MGG23; assay type: cell-based
# DIPG XIII = assay: Cell viability, pediatric glioma DIPG XIII; assay type: cell-based
# BT474 = assay: Cell viability, breast cancer cells BT474; assay type: cell-based
# PN84 = assay: Cell viability, adult glioma PN84; assay type: cell-based
# GBM8 = assay: Cell viability, adult glioma GBM8; assay type: cell-based
# U87 = assay: Cell viability, adult glioma U87; assay type: cell-based
# MDA = assay: Cell viability, breast cancer cells MDA; assay type: cell-based
# BRD4 [2] = assay: CDDO blockade of CS-JQ1-induced BRD4 degradation; assay type: cell-based; conditions: MDA and MES83 cells; CDDO 100 nM or 5 μm, celastrol-JQ1 100 nM; CHX 3 μg/ml 1 h, 8 hour treatment
# DIPG 50 = assay: Cell viability, pediatric glioma DIPG 50; assay type: cell-based
# Keap1 Kelch domain = Keap1 Kelch domain (Homo sapiens, UniProt Q14145); assay: TR-FRET assay with full-length Keap1, Kelch domain; assay type: binding
# Keap1 Kelch domain, sequence (Q14145 whole entry, the tested form may be a part): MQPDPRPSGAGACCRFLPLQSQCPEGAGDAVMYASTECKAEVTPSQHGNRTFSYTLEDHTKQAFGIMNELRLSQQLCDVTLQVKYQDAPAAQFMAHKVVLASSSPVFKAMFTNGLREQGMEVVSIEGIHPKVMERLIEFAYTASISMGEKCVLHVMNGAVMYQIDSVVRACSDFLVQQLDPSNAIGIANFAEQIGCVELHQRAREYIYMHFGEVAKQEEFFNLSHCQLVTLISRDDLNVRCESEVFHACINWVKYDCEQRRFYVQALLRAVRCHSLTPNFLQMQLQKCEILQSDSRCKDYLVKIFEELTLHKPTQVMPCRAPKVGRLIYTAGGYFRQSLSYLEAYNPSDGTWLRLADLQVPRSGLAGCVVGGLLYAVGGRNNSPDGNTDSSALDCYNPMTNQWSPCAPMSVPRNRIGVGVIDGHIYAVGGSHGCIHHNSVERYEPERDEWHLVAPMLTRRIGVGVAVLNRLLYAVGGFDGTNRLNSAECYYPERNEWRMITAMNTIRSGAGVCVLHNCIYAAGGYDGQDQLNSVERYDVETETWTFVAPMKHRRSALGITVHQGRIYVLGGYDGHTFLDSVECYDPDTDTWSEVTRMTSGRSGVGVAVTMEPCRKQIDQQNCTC
# Procedure: (§1) FIG. 5 contains a table showing apparent equilibrium dissociation constants for CS and CS-JQ1 toward Keap1-Kelch and Keap1-BTB domains.
# (§2) Chemical synthesis: FITC-Ahx-[…]-CONH2 (FITC-KL9) peptide tracer was custom synthesized by Genscript (Piscataway, New Jersey). CDDO-FITC fluorescent tracer was prepared as previously described. Column purifications were performed on a Biotage Isolera 4 Purification System equipped with a 200-400 nm diode array detector. For normal phase flash purifications, Sorbtech Purity Flash Cartridges were used (CFC-52300-012-18 and CFC-52500-025-12). For reverse phase flash purifications, Biotage Sfar Bio C18 Duo 300 A, 20 μm cartridges were used (FSBD-0411-001). […] LC/MS data analysis was performed using Waters Masslynx V4.1 SCN 846 software. Proton and carbon nuclear magnetic resonance (1H and 13C NMR spectra) were recorded on a Bruker Avance III 400 spectrometer using Topspin 3.2 software and data were analyzed using MestreNova (version 12.0.1-20560, Mestrelab Research). Chemical shifts for protons are reported in parts per million (ppm) and are referenced to residual solvent peaks. Data is reported as follows: chemical shift, multiplicity (s=singlet, br s, =broad singlet, d=doublet, t=triplet, q=quartet, p=pentet, m=multiplet), proton coupling constants (J, Hz), and integration. […]
# PHC (mice) = assay: Cell viability, pediatric glioma PHC (mice); assay type: cell-based; conditions: Mus musculus
# [3] = cited from earlier work
# XFM (mice) = assay: Cell viability, pediatric glioma XFM (mice); assay type: cell-based; conditions: Mus musculus
# M005 (mice) = assay: Cell viability, adult glioma M005 (mice); assay type: cell-based; conditions: Mus musculus
# PKC (mice) = assay: Cell viability, pediatric glioma PKC (mice); assay type: cell-based; conditions: Mus musculus
# Keap1 BTB domain = Keap1 BTB domain (Homo sapiens, UniProt Q14145); assay: TR-FRET ligand displacement assay with full-length Keap1, BTB domain (CDDO-based tracer); assay type: binding
# Keap1 BTB domain, sequence (Q14145 whole entry, the tested form may be a part): as above
# Procedure: as §1
# as §2, with “Research).” for “Research). Chemical shifts for protons are reported in parts per million (ppm) and are referenced to residual solvent peaks. Data is reported as follows: chemical shift, multiplicity (s=singlet, br s, =broad singlet, d=doublet, t=triplet, q=quartet, p=pentet, m=multiplet), proton coupling constants (J, Hz), and integration.”
# CS was discovered and validated as a promising new ligand for the redirection of E3 ligase activity. […] Since the binding affinity of CS and CS-JQ1 for BTB was determined in a ligand displacement assay using a CDDO-based tracer, it was reasonable to assume that CDDO-Me would efficiently displace CS-JQ1. […]
# BRD4 [4] = assay: TR-FRET ligand displacement, target engagement with BRD4; assay type: binding; conditions: recombinant BRD4(BD1), BRD4(BD2), endogenous BRD4 in MCF7 cell extracts
# [5] = test system: full-length Keap1 and BRD4(BD1) and BRD4(BD2); assay: CS-JQ1-induced ternary complex formation; assay type: binding; conditions: wildtype full-length Keap1, isolated BRD4 (BD1) and BRD4 (BD2)
# BRD4 [6] = target: T1, BRD4; assay: TR-FRET quantification of BRD4 levels after 5 h treatment, MCF7 cells; assay type: cell-based; conditions: BRD4 degradation
# Procedure: (§3) Mammalian cell culture: MCF7 cells (ATCC) were propagated in RPMI-1640 medium supplemented with 10% FBS, 1% pen-strep, and 1% L-glutamine at 37° C. and 5% CO2. MDA-MB-231 cells (ATCC) were propagated in DMEM medium supplemented with 10% FBS, and 1% pen-strep at 37° C. and 5% CO2.
# (§4) TR-FRET measurements: unless otherwise noted, experiments were performed in white, 384-well microtiter plates (Corning 3572) in 30 μL assay volume. […] The 490/10 and 520/10 emission channels were acquired with a 50% mirror and a dichroic 510 mirror, respectively, using independently optimized detector gain settings unless specified otherwise. The TR-FRET ratio was taken as the 520/490 nm intensity ratio on a per-well basis.
# (§5) Next, MCF7 and MDA-MB-231 cells were treated for 5 h with varying concentrations of CS-JQ1, followed by BRD4 quantification. […] Western blot analysis on the same samples yielded results that were again in excellent agreement (FIG. 1F-G).
# BRD4 [7] = target: T1, BRD4; assay: TR-FRET quantification of BRD4 levels after 5 h treatment, MDA-MB-231 cells; assay type: cell-based; conditions: BRD4 degradation
# Procedure: as §3, §4, §5
smiles,measurement,setting,value
NS(=O)(=O)OC[C@H]1C[C@@H](Nc2ccnc3cc(-c4cccc(SC(F)(F)F)c4)nn23)[C@H](O)[C@@H]1O [MLN7243],Rescue of CS-JQ1-mediated BRD4 degradation by co-treatment,BRD4 [1],substantially rescued
Cc1sc2c(c1C)C(c1ccc(Cl)cc1)=NC(CC(=O)NCCCOCCOCCOCCCNC(=O)[C@]13CCC(C)(C)C[C@H]1[C@H]1C(=O)C=C4[C@@]5(C)C=C(C#N)C(=O)C(C)(C)[C@@H]5CC[C@@]4(C)[C@]1(C)CC3)c1nnc(C)n1-2 (stereo partly shown) [CDDO-JQ1],IC50,DIPG VI,277 nM
same,IC50,CT2A (mice),747 nM
same,IC50,MGG6,357 nM
same,IC50,MES236,404 nM
same,IC50,MGG29,360 nM
same,IC50,MCF-7,6600 nM
same,IC50,MDA-BR,> 10000 nM
same,IC50,DIPG IV,894 nM
same,IC50,MES83,1000 nM
same,IC50,SJGBM2,635 nM
same,IC50,MGG23,1850 nM
same,IC50,DIPG XIII,694 nM
same,IC50,BT474,1680 nM
same,IC50,PN84,139 nM
same,IC50,GBM8,124 nM
same,IC50,U87,746 nM
same,IC50,MDA,748 nM
CC(C)C[C@H](NC(=O)[C@H](Cc1ccccc1)NC(=O)c1cnccn1)B(O)O [BTZ],Rescue of CS-JQ1-mediated BRD4 degradation by co-treatment,BRD4 [1],substantially rescued
CC1(C)CC[C@]2(C(=O)O)CC[C@]3(C)[C@H](C(=O)C=C4[C@@]5(C)C=C(C#N)C(=O)C(C)(C)[C@@H]5CC[C@]43C)[C@@H]2C1 [CDDO],IC50,DIPG VI,1330 nM
same,IC50,CT2A (mice),2120 nM
same,IC50,MGG6,964 nM
same,IC50,MES236,1280 nM
same,IC50,MGG29,828 nM
same,IC50,MCF-7,> 10000 nM
same,IC50,MDA-BR,> 10000 nM
same,IC50,DIPG IV,1360 nM
same,IC50,MES83,1350 nM
same,IC50,SJGBM2,2370 nM
same,Blockade of CS-JQ1-induced BRD4 degradation by CDDO pre-treatment,BRD4 [2],blocks partially
same,IC50,MGG23,2570 nM
same,IC50,DIPG XIII,1410 nM
same,IC50,BT474,4840 nM
same,IC50,PN84,278 nM
same,IC50,GBM8,578 nM
same,IC50,U87,3700 nM
same,IC50,MDA,1220 nM
NS(=O)(=O)OC[C@@H]1C[C@@H](n2ccc3c(N[C@H]4CCc5ccccc54)ncnc32)C[C@@H]1O [MLN4924],Rescue of CS-JQ1-mediated BRD4 degradation by co-treatment,BRD4 [1],substantially rescued
"CC1=C(O)C(=O)C=C2C1=CC=C1[C@@]2(C)CC[C@@]2(C)[C@@H]3C[C@](C)(C(=O)O)CC[C@]3(C)CC[C@]12C [Celastrol, (9β,13α,14β,20α)-3-hydroxy-9,13-dimethyl-2-oxo-24,25,26-Trinoroleana-1(10),3,5,7-tetraen-29-oic acid]",IC50,DIPG VI,1360 nM
same,IC50,CT2A (mice); Mus musculus,605 nM
same,IC50,MGG6,1230 nM
same,IC50,DIPG 50,1600 nM
same,IC50,MES236,1270 nM
same,Binding to Keap1 Kelch domain,Keap1 Kelch domain,low micromolar affinity
same,IC50,PHC (mice),310 nM
same,IC50,MGG29,1100 nM
same,pKa,[3],about 4.8
same,IC50,"MCF-7; Homo sapiens, MCF7",3320 nM
same,IC50,MDA-BR,1710 nM
same,IC50,DIPG IV,2960 nM
same,IC50,MES83,1160 nM
same,IC50,SJGBM2,1190 nM
same,IC50,XFM (mice),276 nM
same,IC50,M005 (mice),874 nM
same,IC50,MGG23,1810 nM
same,IC50,DIPG XIII,1910 nM and 1800 nM
same,IC50,"BT474; Homo sapiens, BT-474",511 nM
same,IC50,PKC (mice),170 nM
same,IC50,PN84,381 nM
same,IC50,GBM8,715 nM
same,Affinity for Keap1 BTB domain,Keap1 BTB domain,low micromolar affinity
same,IC50,"U87; Homo sapiens, U-87 MG",913 nM
same,IC50,MDA,1200 nM
"CC1=C(O)C(=O)C=C2C1=CC=C1[C@@]2(C)CC[C@@]2(C)[C@@H]3C[C@](C)(C(=O)NCCCOCCOCCOCCCNC(=O)CC4N=C(c5ccc(Cl)cc5)c5c(sc(C)c5C)-n5c(C)nnc54)CC[C@]3(C)CC[C@]12C (stereo partly drawn) [CS-JQ1, (2R,4aS,6aS,12bR,14aS,14bR)—N-(1-(4-(4-chlorophenyl)-2,3,9-trimethyl-6H-thieno[3,2-f][1,2,4]triazolo[4,3-a][1,4]diazepin-6-yl)-2-oxo-7,10,13-trioxa-3-azahexadecan-16-yl)-10-hydroxy-2,4a,6a,9,12b,14a-hexamethyl-11-oxo-1,2,3,4,4a,5,6,6a,11,12b,13,14,14a,14b-tetradecahydropicene-2-carboxamide]",IC50,DIPG VI,83.1 nM
same,IC50,CT2A (mice); Mus musculus,142 nM
same,IC50,MGG6,99.3 nM
same,IC50,DIPG 50,298 nM
same,IC50,MES236,190 nM
same,Binding to Keap1 Kelch domain,Keap1 Kelch domain,lost the ability to bind the Keap1 Kelch domain
same,IC50,PHC (mice),8.48 nM
same,IC50,MGG29,90.4 nM
same,IC50,"MCF-7; Homo sapiens, MCF7",409 nM
same,Binding to BRD4,BRD4 [4],did not impair binding to BRD4
same,IC50,MDA-BR,213 nM
same,IC50,DIPG IV,819 nM
same,IC50,MES83,328 nM
same,IC50,SJGBM2,263 nM
same,IC50,XFM (mice),38.2 nM
same,Ternary complex formation between Keap1 and BRD4 domains,[5],able to induce ternary complex formation
same,Emax,BRD4 [6],21%
same,"Emax,5h,MCF7",BRD4 [6],21%
same,DC50,BRD4 [6]; n=2,29 ± 14 nM
same,IC50,M005 (mice),23.6 nM
same,IC50,MGG23,447 nM
same,IC50,DIPG XIII,39 nM
same,IC50,DIPG XIII; listed as Celastrol-JQ1,46.5 nM
same,IC50,"BT474; Homo sapiens, BT-474",60.9 nM
same,IC50,PKC (mice),103 nM
same,IC50,PN84,79.7 nM
same,IC50,PN84; listed as Celastrol-JQ1,125 nM
same,Emax,BRD4 [7],12%
same,"Emax,5h,MDA-MB-231",BRD4 [7],12%
same,DC50,BRD4 [7]; n=2,16 ± 2 nM
same,IC50,GBM8,63.1 nM
same,Affinity for Keap1 BTB domain,Keap1 BTB domain,slightly improved affinity for the BTB domain
same,IC50,"U87; Homo sapiens, U-87 MG",266 nM
same,IC50,MDA,119 nM
